According to paper PMC11790914, “Chemogenomics for steroid hormone receptors (NR3)” (Communications Chemistry, 2025):
“And” between values parts separate entries of the source, which are not always exact repeats. Equal values may be shown once.

Assays:
MAPK1 = target: T1, MAPK1 (Homo sapiens, UniProt P28482); assay: Liability panel screening by DSF: MAPK1; format: binding; conditions: DSF, 20 µM, n=2; read-out: Mean ΔTM MAPK1
T1 construct: made in house
Procedure: (§1) Reference ligands are listed in the methods section.
(§2) In-house produced recombinantly expressed proteins[62] of the liability panel targets were diluted in a buffer containing 10 mM HEPES (pH 7.5) and 500 mM NaCl to a concentration of 2 µM. SYPRO Orange (Invitrogen, Carlsbad, California, USA; #S6650) as a fluorescence probe was added at a 1:1000 dilution to the proteins. […] Temperature-dependent unfolding profiles were measured on a QuantStudio™ 5 real-time PCR machine (Thermo Fisher Scientific, Waltham, Massachusetts, USA; #A28140). […] The temperature was increased 3 °C per minute to a maximum temperature of 85 °C. Experiments were run as technical duplicates. […] Data were analyzed with the internal Thermal Shift Software (version 1.4, Thermo Fisher Scientific) using the Boltzmann equitation to determine the inflection point of the transition curve. Differences in melting temperature are given as ∆Tm in K. […]
(§3) scanning fluorimetry (DSF).
(§4) a concentration of 20 µM.

ABL1 = target: T2, ABL1 (Homo sapiens, UniProt P00519); assay: Liability panel screening by DSF: ABL1; format: binding; conditions: DSF, 20 µM, n=2; read-out: Mean ΔTM ABL1
T2 construct: made in house
T2 sequence (P00519 whole entry, species assumed): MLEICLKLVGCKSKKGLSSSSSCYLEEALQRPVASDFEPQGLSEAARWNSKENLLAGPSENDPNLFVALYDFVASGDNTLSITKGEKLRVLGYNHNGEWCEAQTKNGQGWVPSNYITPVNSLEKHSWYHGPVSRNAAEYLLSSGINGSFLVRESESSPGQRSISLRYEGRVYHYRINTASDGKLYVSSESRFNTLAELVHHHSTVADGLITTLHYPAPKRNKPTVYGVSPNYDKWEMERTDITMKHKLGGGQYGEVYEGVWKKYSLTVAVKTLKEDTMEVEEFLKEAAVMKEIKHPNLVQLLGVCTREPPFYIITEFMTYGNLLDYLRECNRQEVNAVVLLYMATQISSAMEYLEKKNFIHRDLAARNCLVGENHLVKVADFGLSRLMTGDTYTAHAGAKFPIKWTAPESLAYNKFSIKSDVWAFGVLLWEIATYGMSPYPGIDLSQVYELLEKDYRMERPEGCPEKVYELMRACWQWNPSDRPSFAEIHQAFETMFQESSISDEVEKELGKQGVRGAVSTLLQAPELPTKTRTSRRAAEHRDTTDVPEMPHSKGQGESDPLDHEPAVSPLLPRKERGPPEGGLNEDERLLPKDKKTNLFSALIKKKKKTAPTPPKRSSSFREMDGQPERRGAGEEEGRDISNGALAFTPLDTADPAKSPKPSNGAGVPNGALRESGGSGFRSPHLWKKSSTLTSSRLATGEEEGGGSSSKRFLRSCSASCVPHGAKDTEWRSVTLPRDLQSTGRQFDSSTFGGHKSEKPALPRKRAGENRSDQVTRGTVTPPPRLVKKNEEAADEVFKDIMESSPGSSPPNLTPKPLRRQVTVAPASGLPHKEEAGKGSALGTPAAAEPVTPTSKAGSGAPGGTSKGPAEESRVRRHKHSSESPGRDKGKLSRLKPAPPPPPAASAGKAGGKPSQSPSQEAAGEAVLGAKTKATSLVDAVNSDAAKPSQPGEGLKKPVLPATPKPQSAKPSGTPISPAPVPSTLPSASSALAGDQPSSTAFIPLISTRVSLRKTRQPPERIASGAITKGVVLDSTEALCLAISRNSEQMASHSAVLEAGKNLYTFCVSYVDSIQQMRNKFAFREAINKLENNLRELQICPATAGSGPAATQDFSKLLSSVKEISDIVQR
Procedure: as §1, §2, §3, §4

HEK293T cells [1] = assay: Cytotoxicity: necrosis induction (red fluorescent dye for permeable plasma membranes); format: cell-based; conditions: 1 µM, 24 h, necrotic cell count normalized to 0.1% DMSO, single replicates;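 note: compounds applied in DMEM high glucose with 0.1% FCS and 0.1% DMSO, necrotic HEK293T cells counted by red staining of cells whose plasma membranes had become permeable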
BRD4 = target: T3, BRD4 (Homo sapiens, UniProt O60885); assay: Liability panel screening by DSF: BRD4; format: binding; conditions: DSF, 20 µM, n=2; read-out: Mean ΔTM BRD4
T3 construct: This panel comprised ten highly ligandable kinases and bromodomains; made in house
Procedure: as §1, §2, §3, §4

BRPF1 = target: T4, BRPF1 (Homo sapiens, UniProt P55201); assay: Liability panel screening by DSF: BRPF1; format: binding; conditions: DSF, 20 µM, n=2; read-out: Mean ΔTM BRPF1
T4 construct: This panel comprised ten highly ligandable kinases and bromodomains; made in house
T4 sequence (P55201 628-732 limits assumed): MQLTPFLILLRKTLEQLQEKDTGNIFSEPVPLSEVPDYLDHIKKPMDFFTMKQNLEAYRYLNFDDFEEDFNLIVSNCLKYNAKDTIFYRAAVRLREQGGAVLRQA
Procedure: as §1, §2, §3, §4

[2] = test system: NF-κB activity in HEK293 NF-κB reporter cells; assay: NF-kB activity assay (GFP reporter, ionomycin/PMA); format: cell-based; conditions: for Mean NFκB response: n=3; for NF-κB activity (inflammatory response to ionomycin/PMA): HEK293 NF-κB reporter cells, compounds at recommended concentrations, imaged over 24 h, n = 3
Procedure: Fig. 6 Application of the NR3 CG set.
After 24 h, cells were incubated with the test compounds solubilized with 0.1% DMSO in the same medium without puromycin. After 4 h incubation, ionomycin (100 ng/mL) and phorbol-12-myristat-13-acetate (PMA, 10 ng/mL) was added, and the cells were imaged for confluence and GFP expression every 90 min. over 24 h using a Tecan SPARK Cyto (Tecan). The number of GFP expressing cells was normalized to confluence in each sample. Each sample was repeated in three biologically independent experiments.

GSK3B = target: T5, GSK3B (Homo sapiens, UniProt P49841); assay: Liability panel screening by DSF: GSK3B; format: binding; conditions: DSF, 20 µM, n=2; read-out: Mean ΔTM GSK3B
T5 construct: made in house
T5 sequence (P49841 whole entry, species assumed): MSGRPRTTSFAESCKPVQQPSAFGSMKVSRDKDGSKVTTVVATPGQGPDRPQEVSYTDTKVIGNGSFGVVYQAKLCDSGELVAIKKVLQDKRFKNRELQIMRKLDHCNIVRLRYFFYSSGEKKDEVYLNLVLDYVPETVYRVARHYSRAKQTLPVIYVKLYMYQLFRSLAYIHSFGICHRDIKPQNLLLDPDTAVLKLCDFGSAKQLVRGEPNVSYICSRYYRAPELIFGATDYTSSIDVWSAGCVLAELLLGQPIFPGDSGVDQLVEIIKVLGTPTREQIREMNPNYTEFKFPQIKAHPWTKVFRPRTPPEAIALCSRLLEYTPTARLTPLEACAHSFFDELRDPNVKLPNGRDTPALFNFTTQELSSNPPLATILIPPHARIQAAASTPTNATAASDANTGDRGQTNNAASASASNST

HEK293T cells [3] = assay: Cytotoxicity: apoptosis induction (caspase-3/7 DEVD fluorogenic DNA dye); conditions: 1 µM; HEK293T, 24 h; apoptotic cell count normalized to 0.1% DMSO; single replicates
TRIM24 = target: T6, TRIM24 (Homo sapiens, UniProt O15164); assay: Liability panel screening by DSF: TRIM24; format: binding; conditions: DSF, 20 µM, n=2; read-out: Mean ΔTM TRIM24
T6 construct: This panel comprised ten highly ligandable kinases and bromodomains; made in house
T6 sequence (O15164 899-1004 limits assumed): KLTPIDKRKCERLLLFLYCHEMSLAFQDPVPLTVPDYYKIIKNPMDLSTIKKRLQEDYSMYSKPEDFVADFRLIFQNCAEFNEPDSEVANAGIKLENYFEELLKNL
Procedure: as §1, §2, §3, §4

FGFR3 = target: T7, FGFR3 (Homo sapiens, UniProt P22607); assay: Liability panel screening by DSF: FGFR3; format: binding; conditions: DSF, 20 µM, n=2; read-out: Mean ΔTM FGFR3
T7 construct: made in house
T7 sequence (P22607 23-806, species assumed): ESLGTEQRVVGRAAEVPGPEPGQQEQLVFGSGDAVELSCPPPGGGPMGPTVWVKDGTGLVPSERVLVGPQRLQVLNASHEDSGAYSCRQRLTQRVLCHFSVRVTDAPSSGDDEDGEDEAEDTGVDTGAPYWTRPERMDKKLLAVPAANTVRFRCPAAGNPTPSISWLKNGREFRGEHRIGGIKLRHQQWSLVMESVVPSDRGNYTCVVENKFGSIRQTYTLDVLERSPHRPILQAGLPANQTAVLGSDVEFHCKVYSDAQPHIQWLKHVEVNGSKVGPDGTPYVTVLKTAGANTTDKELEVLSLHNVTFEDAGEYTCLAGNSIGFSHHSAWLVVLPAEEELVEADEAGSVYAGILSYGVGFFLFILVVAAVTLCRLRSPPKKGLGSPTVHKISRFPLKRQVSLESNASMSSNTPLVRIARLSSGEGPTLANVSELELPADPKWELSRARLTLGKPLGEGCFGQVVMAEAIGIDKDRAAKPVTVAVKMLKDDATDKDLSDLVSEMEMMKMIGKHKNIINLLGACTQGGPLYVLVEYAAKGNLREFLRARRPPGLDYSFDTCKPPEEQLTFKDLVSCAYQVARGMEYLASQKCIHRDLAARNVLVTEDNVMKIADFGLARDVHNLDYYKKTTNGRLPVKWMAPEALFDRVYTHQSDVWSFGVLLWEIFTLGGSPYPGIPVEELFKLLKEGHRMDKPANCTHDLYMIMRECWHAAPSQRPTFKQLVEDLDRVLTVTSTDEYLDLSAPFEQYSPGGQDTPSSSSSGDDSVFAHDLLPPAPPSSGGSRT
Procedure: as §1, §2, §3, §4

HEK293T cells [4] = assay: Cytotoxicity: metabolic activity (WST-8 / CCK-8 assay); conditions: 1 µM; HEK293T, 24 h; WST-8; normalized to 0.1% DMSO; single replicates
CSNK1D = target: T8, CSNK1D (Homo sapiens, UniProt P48730); assay: Liability panel screening by DSF: CSNK1D; format: binding; conditions: DSF, 20 µM, n=2; read-out: Mean ΔTM CSNK1D
T8 construct: made in house
T8 sequence (P48730 whole entry, species assumed): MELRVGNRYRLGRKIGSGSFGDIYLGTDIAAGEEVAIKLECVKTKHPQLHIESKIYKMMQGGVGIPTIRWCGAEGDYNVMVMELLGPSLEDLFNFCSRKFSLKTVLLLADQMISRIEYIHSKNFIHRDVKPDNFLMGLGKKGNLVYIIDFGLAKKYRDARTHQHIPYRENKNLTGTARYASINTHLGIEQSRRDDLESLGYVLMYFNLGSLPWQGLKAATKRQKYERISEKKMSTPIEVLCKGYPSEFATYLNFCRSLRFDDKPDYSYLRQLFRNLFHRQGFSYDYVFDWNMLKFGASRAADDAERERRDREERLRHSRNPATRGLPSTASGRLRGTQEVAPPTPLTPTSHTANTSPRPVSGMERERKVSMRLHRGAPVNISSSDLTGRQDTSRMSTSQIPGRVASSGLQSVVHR
Procedure: as §1, §2, §3, §4

CDK2 = target: T9, CDK2 (Homo sapiens, UniProt P24941); assay: Liability panel screening by DSF: CDK2; format: binding; conditions: DSF, 20 µM, n=2; read-out: Mean ΔTM CDK2
T9 construct: made in house
Procedure: as §1, §2, §3, §4

AURKA = target: T10, AURKA (Homo sapiens, UniProt O14965); assay: Liability panel screening by DSF: AURKA; format: binding; conditions: DSF, 20 µM, n=2; read-out: Mean ΔTM AURKA
T10 construct: made in house
T10 sequence (O14965 1-403): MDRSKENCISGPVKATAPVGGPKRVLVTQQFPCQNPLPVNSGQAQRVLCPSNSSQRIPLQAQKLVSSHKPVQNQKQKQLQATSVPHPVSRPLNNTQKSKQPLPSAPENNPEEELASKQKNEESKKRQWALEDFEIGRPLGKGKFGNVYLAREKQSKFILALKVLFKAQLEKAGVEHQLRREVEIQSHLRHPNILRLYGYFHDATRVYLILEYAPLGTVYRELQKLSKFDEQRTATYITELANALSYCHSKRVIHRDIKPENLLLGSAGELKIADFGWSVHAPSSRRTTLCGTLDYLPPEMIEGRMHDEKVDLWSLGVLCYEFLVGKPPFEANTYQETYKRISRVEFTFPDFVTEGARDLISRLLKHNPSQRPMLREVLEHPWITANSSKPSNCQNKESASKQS
Procedure: as §1, §2, §3, §4

[5] = test system: ATF6 activity in Hela ATF6 reporter cells; assay: Endoplasmic reticulum stress assay (ATF6 Renilla luciferase reporter, tunicamycin); format: cell-based
Procedure: After 24 h, cells were incubated with the test compounds solubilized with 0.1% DMSO in the same medium without puromycin. After 4 h incubation, tunicamycin (100 ng/mL) was added. After another 18 h incubation, cells were assayed for renilla luminescence using DualGlo reagent (Promega) on a Tecan SPARK Cyto (Tecan). Test samples were normalized to the 0.1% DMSO control. Each sample was repeated in five biologically independent experiments.

HEK293T cells [6] = assay: Cytotoxicity: growth-rate (change in confluence over 24 h); conditions: 1 µM, normalized to 0.1% DMSO control, single replicates (n=1...)

T1 sequence (P28482 whole entry, species assumed): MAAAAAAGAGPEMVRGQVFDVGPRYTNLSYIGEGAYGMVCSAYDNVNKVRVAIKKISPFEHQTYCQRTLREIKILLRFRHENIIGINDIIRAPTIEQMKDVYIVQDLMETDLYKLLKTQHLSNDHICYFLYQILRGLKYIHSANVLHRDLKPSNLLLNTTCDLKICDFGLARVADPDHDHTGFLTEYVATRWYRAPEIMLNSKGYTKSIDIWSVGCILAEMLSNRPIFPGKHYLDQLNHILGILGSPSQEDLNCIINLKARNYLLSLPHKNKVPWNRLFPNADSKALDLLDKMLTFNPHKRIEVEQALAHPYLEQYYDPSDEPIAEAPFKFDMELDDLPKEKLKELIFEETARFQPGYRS

SMILES | ΔTm at 20 µM (MAPK1) [°C] | Necrosis induction [NI] (HEK293T cells [1]) | Mean NFκB response ([2]; 1 µM, 1,5 h) | Mean NFκB response ([2]; 1 µM, 4,5 h) | Mean NFκB response ([2]; 1 µM, 7,5 h) | Mean NFκB response ([2]; 1 µM, 10,5 h) | Mean NFκB response ([2]; 1 µM, 13,5 h) | Mean NFκB response ([2]; 1 µM, 16,6 h) | Mean NFκB response ([2]; 1 µM, 19,5 h) | Mean NFκB response ([2]; 1 µM, 22,5 h) | Mean NFκB response ([2]; 1 µM, 3 h) | Mean NFκB response ([2]; 1 µM, 6 h) | Mean NFκB response ([2]; 1 µM, 9 h) | Mean NFκB response ([2]; 1 µM, 12 h) | Mean NFκB response ([2]; 1 µM, 15 h) | Mean NFκB response ([2]; 1 µM, 18 h) | Mean NFκB response ([2]; 1 µM, 21 h) | Mean NFκB response ([2]; 1 µM, 24 h) | Apoptosis induction [AI] (HEK293T cells [3]) | Metabolic activity [MA] (HEK293T cells [4]) | also measured
Cc1c(N2C(=O)C3C(O)CCN3C2=O)ccc(C#N)c1Cl (centres unmarked) [BMS564929] | 0.12 | 0.79 and 0.76 and 0.66 and 0.82 | 2292.65 GFP+-cells/confluence ∙ 1000 | 2993.37 GFP+-cells/confluence ∙ 1000 | 6319.46 GFP+-cells/confluence ∙ 1000 | 12250.00 GFP+-cells/confluence ∙ 1000 | 16870.00 GFP+-cells/confluence ∙ 1000 | 20913.33 GFP+-cells/confluence ∙ 1000 | 23700.00 GFP+-cells/confluence ∙ 1000 | 25766.67 GFP+-cells/confluence ∙ 1000 | 2425.99 GFP+-cells/confluence ∙ 1000 | 4160.27 GFP+-cells/confluence ∙ 1000 | 9390.00 GFP+-cells/confluence ∙ 1000 | 14670.00 GFP+-cells/confluence ∙ 1000 | 19226.67 GFP+-cells/confluence ∙ 1000 | 22263.33 GFP+-cells/confluence ∙ 1000 | 24826.67 GFP+-cells/confluence ∙ 1000 | 26713.33 GFP+-cells/confluence ∙ 1000 | 0.43 and 0.64 and 0.69 and 0.74 and 0.68 and 1.04 | 1.09 and 1.08 and 0.94 and 1.07 (2×) and 0.99 and 0.92 and 1.10 | ΔTm at 20 µM (ABL1): 0.02 °C; ΔTm at 20 µM (BRD4): -2.89 °C; ΔTm at 20 µM (BRPF1): 0.06 °C; ΔTm at 20 µM (GSK3B): -0.71 °C; ΔTm at 20 µM (TRIM24): 0.44 °C; ΔTm at 20 µM (FGFR3): -0.04 °C; ΔTm at 20 µM (CSNK1D): -0.38 °C; ΔTm at 20 µM (CDK2): 0.04 °C; ΔTm at 20 µM (AURKA): -2.25 °C
N#CC(Cc1ccc(O)cc1)c1ccc(O)cc1 (centres unmarked) [Diarylpropionitrile] | 0.0328 | 1.10 and 0.85 and 0.90 and 1.44 | 3165.75 GFP+-cells/confluence ∙ 1000 | 4108.72 GFP+-cells/confluence ∙ 1000 | 9286.59 GFP+-cells/confluence ∙ 1000 | 18231.50 GFP+-cells/confluence ∙ 1000 | 25916.56 GFP+-cells/confluence ∙ 1000 | 31500.03 GFP+-cells/confluence ∙ 1000 | 35046.16 GFP+-cells/confluence ∙ 1000 | 38151.13 GFP+-cells/confluence ∙ 1000 | 3363.39 GFP+-cells/confluence ∙ 1000 | 5664.74 GFP+-cells/confluence ∙ 1000 | 14005.24 GFP+-cells/confluence ∙ 1000 | 22519.63 GFP+-cells/confluence ∙ 1000 | 29221.60 GFP+-cells/confluence ∙ 1000 | 33392.36 GFP+-cells/confluence ∙ 1000 | 36386.11 GFP+-cells/confluence ∙ 1000 | 39415.66 GFP+-cells/confluence ∙ 1000 | 0.70 and 1.46 and 0.65 and 1.11 and 1.49 and 0.58 | 1.05 and 0.99 and 0.90 and 1.01 and 1.03 and 0.93 and 1.00 and 1.10 | ΔTm at 20 µM (ABL1): 0.17 °C; ΔTm at 20 µM (BRD4): 0.26 °C; ΔTm at 20 µM (BRPF1): -1.46 °C; NF-κB activity (inflammatory response to ionomycin/PMA) [2]: no impact on NF-κB activity; ΔTm at 20 µM (GSK3B): 0.0529 °C; ΔTm at 20 µM (TRIM24): 0.03 °C; ATF6 activity (tunicamycin-induced endoplasmic reticulum stress) ([5]; Hela ATF6 reporter cells, tunicamycin 100 ng/mL, 18 h, compounds at recommended concentrations, n = 5): failed to reduce ATF6 activity; ΔTm at 20 µM (FGFR3): 0.51 °C; ΔTm at 20 µM (CSNK1D): 0.0747 °C; ΔTm at 20 µM (CDK2): 0.74 °C; ΔTm at 20 µM (AURKA): 0.16 °C; Growth rate [GR] (HEK293T cells [6]): 0.79 (2×) and 0.00 (2×) and 0.84 and 1.00 and 0.91 and 0.88 and 1.61 and 5.04
CNC(=O)c1ccc(N2C(=S)N(c3ccc(C#N)c(C(F)(F)F)c3)C(=O)C2(C)C)cc1F [Enzalutamide] | – | 0.88 and 0.97 and 0.94 and 0.81 | 4053.16 GFP+-cells/confluence ∙ 1000 | 4748.63 GFP+-cells/confluence ∙ 1000 | 9147.14 GFP+-cells/confluence ∙ 1000 | 19308.05 GFP+-cells/confluence ∙ 1000 | 27440.00 GFP+-cells/confluence ∙ 1000 | 33976.67 GFP+-cells/confluence ∙ 1000 | 37833.33 GFP+-cells/confluence ∙ 1000 | 41216.67 GFP+-cells/confluence ∙ 1000 | 4315.98 GFP+-cells/confluence ∙ 1000 | 6007.28 GFP+-cells/confluence ∙ 1000 | 14317.85 GFP+-cells/confluence ∙ 1000 | 23650.00 GFP+-cells/confluence ∙ 1000 | 31096.67 GFP+-cells/confluence ∙ 1000 | 36023.33 GFP+-cells/confluence ∙ 1000 | 39446.67 GFP+-cells/confluence ∙ 1000 | 42106.67 GFP+-cells/confluence ∙ 1000 | 0.86 and 1.10 and 1.13 and 0.75 and 1.01 and 0.84 | 1.02 and 1.04 and 1.01 (2×) and 0.98 and 1.13 | NF-κB activity (inflammatory response to ionomycin/PMA) [2]: tended to enhance NF-κB activity; activity at 1 µM ([5]; Homo sapiens, HeLa, 1 µM, single replicates n=1 to n=5, read-out: ER stress [rel. ATF6 activity]): 99% and 117%; Growth rate [GR] (HEK293T cells [6]): 0.61 and 1.23 and 0.75 and 1.17 and 0.84 and 0.95 and 1.00 and 2.30 and 3.82 and 0.45
